Measurements published in patent publication US20250000093A1, “HETEROCYCLIC COMPOUNDS FOR THE CONTROL OF INVERTEBRATE PESTS” (BASF SE, priority 2021, published 2025).

Key:
Type in all cases: in vivo
Anthonomus grandis = test: B.4 Boll weevil, insect diet and eggs in microtiter plates; details: 120 h, egg and larval mortality, 5 days, read-out: mortality in comparison with untreated controls
Method: B.4 Boll Weevil (Anthonomus grandis)
For evaluating control of boll weevil (Anthonomus grandis) the test unit consisted of 96-well-microtiter plates containing an insect diet and 5-10 A. grandis eggs.
The compounds were formulated using a solution containing 75% v/v water and 25% v/v DMSO. Different concentrations of formulated compounds were sprayed onto the insect diet at 5 μl, using a custom-built micro atomizer, at two replications.
After application, microtiter plates were incubated at about 25±1° C. and about 75±5% relative humidity for 5 days. Egg and larval mortality was then visually assessed.

Dichromothrips corbetti = test: B.6 Orchid thrips, floral-immersion technique; details: for mortality at 300 ppm: Dichromothrips corbetti, adult thrips, 72 hours after treatment, read-out: mortality in comparison with untreated controls; for B.6, 100 ppm: comparative experiment, thrips mortality, unit not given
Method: B.6 Orchid Thrips (Dichromothrips corbetti)
Dichromothrips corbetti adults used for bioassay were obtained from a colony maintained continuously under laboratory conditions. For testing purposes, the test compound is diluted in a 1:1 mixture of acetone:water (vol:vol), plus Kinetic HV at a rate of 0.01% v/v.
Thrips potency of each compound was evaluated by using a floral-immersion technique. All petals of individual, intact orchid flowers were dipped into treatment solution and allowed to dry in Petri dishes. Treated petals were placed into individual re-sealable plastic along with about 20 adult thrips. All test arenas were held under continuous light and a temperature of about 28° C. for duration of the assay. After 3 days, the numbers of live thrips were counted on each petal. The percent mortality was recorded 72 hours after treatment.

Myzus persicae = test: B.2 Green peach aphid, systemic test on artificial diet in microtiter plates; details: for mortality at 2500 ppm: Myzus persicae, 72 h, adult aphids, 3 days, read-out: mortality in comparison with untreated controls; for B.2, 10 ppm / B.2, 25 ppm: comparative experiment, aphid mortality, unit not given
Description: B.2 Green Peach Aphid (Myzus persicae)
For evaluating control of green peach aphid (Myzus persicae) through systemic means the test unit consisted of 96-well-microtiter plates containing liquid artificial diet under an artificial mem brane.
The compounds were formulated using a solution containing 75% v/v water and 25% v/v DMSO. Different concentrations of formulated compounds were pipetted into the aphid diet, using a custom built pipetter, at two replications.
After application, 5-8 adult aphids were placed on the artificial membrane inside the microtiter plate wells. The aphids were then allowed to suck on the treated aphid diet and incubated at about 23±1° C. and about 50±5% relative humidity for 3 days. Aphid mortality and fecundity was then visually assessed.

Heliothis virescens = test: B.3 Tobacco budworm, insect diet and eggs in microtiter plates; details: 120 h, egg and larval mortality, 5 days, read-out: mortality in comparison with untreated controls
Method: B.3 Tobacco Budworm (Heliothis virescens)
For evaluating control of tobacco budworm (Heliothis virescens) the test unit consisted of 96-well-microtiter plates containing an insect diet and 15-25 H. virescens eggs.
The compounds were formulated using a solution containing 75% v/v water and 25% v/v DMSO. Different concentrations of formulated compounds were sprayed onto the insect diet at 10 μl, using a custom-built micro atomizer, at two replications.
After application, microtiter plates were incubated at about 28±1° C. and about 80±5% relative humidity for 5 days. Egg and larval mortality was then visually assessed.

Spodoptera eridania = test: B.5 Southern armyworm, 2nd instar larvae, sprayed lima bean plants; details: 96 h, 4 days after treatment, read-out: mortality in comparison with untreated controls
Method: B.5. Southern Armyworm (Spodoptera eridania), 2nd Instar Larvae
The active compounds were formulated by a Tecan liquid handler in 100% cyclohexanone as a 10,000 ppm solution supplied in tubes. The 10,000 ppm solution was serially diluted in 100% cyclohexanone to make interim solutions. These served as stock solutions for which final dilutions were made by the Tecan in 50% acetone:50% water (v/v) into 10 or 20 ml glass vials. A nonionic surfactant (Kinetic®) was included in the solution at a volume of 0.01% (v/v). The vials were then inserted into an automated electrostatic sprayer equipped with an atomizing nozzle for application to plants/insects. Lima bean plants (variety Sieva) were grown 2 plants to a pot and selected for treatment at the 1st true leaf stage. Test solutions were sprayed onto the foliage by an automated electrostatic plant sprayer equipped with an atomizing spray nozzle. The plants were dried in the sprayer fume hood and then removed from the sprayer. Each pot was placed into perforated plastic bags with a zip closure. Ten to 11 armyworm larvae were placed into the bag and the bags zipped closed. Test plants were maintained in a growth room at about 25° C. and about 20-40% relative humidity for 4 days, avoiding direct exposure to fluorescent light (14:10 light:dark photoperiod) to prevent trapping of heat inside the bags. Mortality and reduced feeding were assessed 4 days after treatment, compared to untreated control plants.

Plutella xylostella = test: B.1 Diamond back moth, cabbage leaf dip test; details: foliar, 3rd instar larvae, 72 hours after treatment, read-out: mortality in comparison with untreated controls
Method: B.1 Diamond Back Moth (Plutella xylostella)
The active compound was dissolved at the desired concentration in a mixture of 1:1 (vol:vol) distilled water:acetone. Surfactant (Kinetic HV) was added at a rate of 0.01% (vol/vol). The test solution was prepared on the day of use.
Leaves of cabbage were dipped in test solution and air-dried. Treated leaves were placed in petri dishes lined with moist filter paper and inoculated with ten 3rd instar larvae. Mortality was recorded 72 hours after treatment. Feeding damages were also recorded using a scale of 0-100%.

Aedes aegypti = test: B.7 Yellow fever mosquito, larvae in microtiter plates; details: comparative experiment, larval mortality after 2 days, unit not given
Method: B.7 Yellow Fever Mosquito (Aedes aegypti)
For evaluating control of yellow fever mosquito (Aedes aegypti) the test unit consisted of 96-well-microtiter plates containing 200 μl of tap water per well and 5-15 freshly hatched A. aegypti larvae.
The active compounds were formulated using a solution containing 75% (v/v) water and 25% (v/v) DMSO. Different concentrations of formulated compounds or mixtures were sprayed onto the insect diet at 2.5 μl, using a custom-built micro atomizer, at two replications.
After application, microtiter plates were incubated at 28±1° C., 80±5% RH for 2 days. Larval mortality was then visually assessed.

SMILES | mortality at 2500 ppm (Anthonomus grandis) [%] | mortality at 300 ppm (Dichromothrips corbetti) [%] | mortality at 2500 ppm (Myzus persicae) [%] | mortality at 2500 ppm (Heliothis virescens) [%] | mortality at 300 ppm (Spodoptera eridania) [%] | mortality at 300 ppm (Plutella xylostella) [%] | B.6, 100 ppm (Dichromothrips corbetti) | B.2, 10 ppm (Myzus persicae) | B.7, 10 ppm (Aedes aegypti) | B.2, 25 ppm (Myzus persicae)
CC(NC(=O)c1cc(Br)cc(C(F)(F)F)c1)c1nccnc1-n1ncn(C)c1=O (stereo not shown) [I-1, 3-bromo-N-[1-[3-(4-methyl-5-oxo-1,2,4-triazol-1-yl)pyrazin-2-yl]ethyl]-5-(trifluoromethyl)benzamide] | ≥ 75 | ≥ 75 | ≥ 75 | ≥ 75 |  |  |  |  |  | 
CC(NC(=O)c1cc(Br)cc(C(F)(F)F)c1)c1nccnc1-n1ncn(CC(F)(F)F)c1=O (stereo not shown) [I-2, 3-bromo-N-[1-[3-[5-oxo-4-(2,2,2-trifluoroethyl)-1,2,4-triazol-1-yl]pyrazin-2-yl]ethyl]-5-(trifluoromethyl)benzamide] | ≥ 75 | ≥ 75 | ≥ 75 | ≥ 75 |  |  |  |  |  | 
COc1ccc(Cn2cnn(-c3nccnc3C(C)NC(=O)c3cc(Br)cc(S(C)(=O)=O)c3)c2=O)cc1 (stereo not shown) [I-3, 3-bromo-N-[1-[3-[4-[(4-methoxyphenyl)methyl]-5-oxo-1,2,4-triazol-1-yl]pyrazin-2-yl]ethyl]-5-methylsulfonyl-benzamide] |  |  | ≥ 75 |  |  |  |  |  |  | 
CC(NC(=O)c1cc(Br)cc(S(C)(=O)=O)c1)c1nccnc1-n1ncn(CC2CC2)c1=O (stereo not shown) [I-5, 3-bromo-N-[1-[3-[4-(cyclopropylmethyl)-5-oxo-1,2,4-triazol-1-yl]pyrazin-2-yl]ethyl]-5-methylsulfonyl-benzamide] | ≥ 75 |  | ≥ 75 |  | ≥ 75 | ≥ 75 |  |  |  | 
CC(c1nccnc1-n1ncn(C)c1=O)N(C)C(=O)c1cc(Br)cc(S(C)(=O)=O)c1 (stereo not shown) [I-8, 3-bromo-N-methyl-N-[1-[3-(4-methyl-5-oxo-1,2,4-triazol-1-yl)pyrazin-2-yl]ethyl]-5-methylsulfonyl-benzamide] |  |  | ≥ 75 |  |  |  |  |  |  | 
CC(NC(=O)c1cc(C(F)(F)F)cc(C(F)(F)F)c1)c1nccnc1-n1ncn(C)c1=O (stereo not shown) [I-10] | ≥ 75 | ≥ 75 | ≥ 75 | ≥ 75 | ≥ 75 | ≥ 75 | 100 | 100 |  | 
CC(c1nccnc1-n1ncn(CC(F)(F)F)c1=O)N(CC1CC1)C(=O)c1cc(C(F)(F)F)cc(C(F)(F)F)c1 (stereo not shown) [I-15] | ≥ 75 | ≥ 75 | ≥ 75 | ≥ 75 | ≥ 75 | ≥ 75 |  |  | 100 | 100
CC(NC(=O)c1cc(C(F)(F)F)cc(C(F)(F)F)c1)c1nccnc1-n1cncn1 (stereo not shown) [WO2021/037614 P46, reference compound] |  |  |  |  |  |  | 0 | 25 |  | 
CC(c1nccnc1-n1cncn1)N(CC1CC1)C(=O)c1cc(C(F)(F)F)cc(C(F)(F)F)c1 (stereo not shown) [WO2021/037614 P48, reference compound] |  |  |  |  |  |  |  |  | 0 | 50
